{"source": "patent US7608642B2", "about": "“Wound and skin care compositions” (Kimberly-Clark Worldwide, Inc., priority 2002, dated 2009)", "key": {"[1]": {"tested_on": "human skin keratinocyte cell line (normal human epidermal keratinocytes, neonatal)", "test": "Proliferation of human skin keratinocytes (Cell Titer 96, absorbance 490 nm)", "assay_type": "cell-based", "conditions": "for Cell proliferating activity on human keratinocytes (in words): 1×10^−4 M to 1×10^−6 M vs control; for Mean optical density (OD) at 490 nm, cell proliferation / Median optical density (OD) at 490 nm, cell proliferation: 48 hours, KBM, n=5", "procedure": "In addition, 100 μl of vehicle KBM was added to 5 wells as control. […] The spectrophotometric absorbance of each well was read at 490 nm."}, "[2]": {"tested_on": "collagen production in the human skin fibroblast cell line", "test": "Collagen production in human skin fibroblasts (Takara EIA kit MK101, absorbance 450 nm)", "assay_type": "cell-based", "conditions": "for Mean optical density (OD) at 450 nm, collagen production / Median optical density (OD) at 450 nm, collagen production: 48 hours, n=2", "procedure": "The cells were first grown in a 96-well assay system using Dulbecco's Modified Eagle's Medium (DMEM) with 10% fetal bovine serum (FBS) both purchased from Sigma Chemical Co, St. Louis, Mo. Serum-free DMEM was used as a control.\nThe assay was done by using the recommended 20 ul of the supernatant from each well of the 96-well plate. Standard buffer and stop solutions were freshly prepared before running the assay. 100 ul of antibody-POD conjugate solution (supplied with the kit) was added into the wells using pre antibody coated 96 well plate (supplied with the kit). 20 ul of standard and test solutions (from the other 96-well plate containing fibroblasts) were added to appropriate wells. Plate was mixed gently, sealed and incubated for three hrs. at 37° C.\nAfter incubation each well was washed carefully four times with PBS buffer (400 ul). All the wells were completely emptied at the end of washing from any liquid.\n100 ul of substrate solution (hydrogen peroxide and tetramethylbenzidine in a buffer solution, supplied with the kit) was added to each well and the plate was incubated for 15 minutes. At this point 100 ul of stop solution (freshly prepared 1N H2SO4) was added to each well in the same order as substrate. The plate was gently mixed and absorbance was read at 450 nm."}, "[3]": {"tested_on": "fibronectin production in the human skin fibroblast cell line", "test": "Fibronectin production in human skin fibroblasts (Takara EIA kit MK115, absorbance 450 nm)", "assay_type": "cell-based", "conditions": "for Mean optical density (OD) at 450 nm, fibronectin production / Median optical density (OD) at 450 nm, fibronectin production: 48 hours, n=2", "procedure": "The cells were first grown in a 96-well assay system using Dulbecco's Modified Eagle's Medium (DMEM) with 10% fetal bovine serum (FBS) both purchased from Sigma Chemical Co, St. Louis, Mo. Serum-free DMEM was used as a control. […] The fibronectin assay was performed using the recommended 100 μl of the supernatant from each well of the 96-well plate. Standard buffer and stop solutions were freshly prepared before running the assay. A pre-antibody-coated 96 well plate (provided with the kit) was used to transfer the test samples and control. The plate was mixed, sealed and incubated for 1 hour at 37° C. All the wells were washed after removing sample solutions, 3 times (300 μl) with washing buffer. 100 ul of antibody-POD conjugate solution was added into the wells. Plate was mixed, sealed and incubated for one hour at 37° C. Solutions were removed and the wells were washed 3 times with washing buffer. All the wells were completely emptied at the end of washing from any liquid. 100 μl of substrate solution (hydrogen peroxide and tetramethylbenzidine in a buffered solution) was added to each well and the plate was incubated at room temperature for 15 minutes. 100 μl of stop solution (freshly prepared 1N H2SO4) was added to each well in the same order as substrate. The plate was gently mixed and absorbance was read at 450 nm."}, "Swiss Albino mice": {"tested_on": "Swiss Albino mice", "test": "Wound healing, full thickness skin wounds (3 mm biopsy punch) in mice", "assay_type": "in vivo, mouse", "conditions": "topical 5 μl of 0.2% solution, 5 doses Day 0-2, vs control (WFI)", "procedure": "Twenty, 12-week old Swiss Albino mice were anesthetized with a ketamine/acepromazine cocktail and subjected to four full thickness skin wounds on the dorsolateral surface. […] Jasmonic acid (100 mg) was dissolved in 2 ml ethanol. 200 μl of the resulting solution was then added to 4.8 ml of WFI. Four wounds were made on either side of the spinal column using a 3 mm biopsy punch. To make the wounds, the skin was first tented and the punch was driven through the tented skin to generate both wounds with a single stroke. The upper left quadrant wound site of the animal was assigned to receive the control solution (WFI). […] The wound sites were dosed 5 times (twice on Day 0, Day 1, and once on Day 2). All wounds were treated with 5 μl of test or control solutions. Wounds were allowed to absorb the solutions for 5 minutes before returning the animals to their cages for recovery. All the animals were housed singly. The in-life phase for the animals is 5 days. Each day the wounds on the mice were traced onto glass slides and measured using calipers accurate to the nearest 0.1 mm. Photographs of the wounds were also taken daily for the duration of the study to measure wound size. Means and the standard deviations of the wound diameters for each day were calculated for the healing profile. The effects of the test substances on wound healing were compared to the effects of the control (WFI)."}, "[4]": {"tested_on": "healthy female volunteers", "test": "Dansyl chloride cell renewal study (stratum corneum renewal time)", "assay_type": "in vivo, human", "conditions": "topical twice daily for two weeks", "source_text": "The stratum corneum renewal time is the time taken for the whole thickness of the stratum corneum to be exfoliated and replaced by new cells from the dividing epidermis. This renewal time is a fundamental indicator of skin health. […] See Jansen L H, Hojyo-Tomoko M T, Kligman A M., Improved fluorescence staining technique for estimating turnover of the human stratum corneum, Br J Dermatol., 90, 9-12, 1974; Ridge B D, Batt M D, Palmer H E, Jarrett A, The dansyl chloride technique for stratum corneum renewal as an indicator of changes in epidermal mitotic activity following topical treatment., Br J Dermatol., 118, 167-74, 1988; Grove G L, Kligman A M, Age-associated changes in human epidermal cell renewal., J Geron., 38, 137-142, 1983. The time required for the dye to disappear is therefore an indication of the turnover time of the stratum corneum. Therefore, any differences in the time required for the dye to disappear from treated and non-treated sites can be considered to be an expression of that product's ability to enhance epidermal renewal.\nA dansyl chloride cell renewal study was conducted in healthy female volunteers ranging from 43-64 years of age. The study consisted of a two-week treatment period during which time the products were applied topically twice daily, including on weekend days, to the test sites. The area of application was designated, approximately 5 cm×10 cm on the upper inner arm. The other arm served as a control with no product application. […] Eight females received jasmonic acid and seven females received gibberellic acid.\nThe time required for a marker dye to disappear was used as the measure of cell renewal rate."}, "[5]": {"conditions": "1×10^−4 M to 1×10^−6 M vs control"}}, "note": "“And” between values parts separate entries of the source, which are not always exact repeats. Equal values may be shown once. “Also recorded” adds a separate entry of the source."}
{"smiles": "C=C1C[C@]23C[C@@]1(O)CC[C@H]2[C@@]12C=C[C@H](O)[C@@](C)(C(=O)O1)[C@H]2[C@@H]3C(=O)O", "note": "[gibberellic acid]", "values": [{"measurement": "Cell proliferating activity on human keratinocytes (in words)", "setting": "[1]", "value": "all concentrations of gibberellic acid had a significant effect on cell growth"}, {"measurement": "Cell proliferating activity on human keratinocytes (in words)", "setting": "[1]; listed as giberrellic acid", "value": "strong cell proliferating activity at all concentrations"}, {"measurement": "Mean optical density (OD) at 490 nm, cell proliferation", "setting": "[1]; 1×10^−4 M", "value": 0.6512}, {"measurement": "Median optical density (OD) at 490 nm, cell proliferation", "setting": "[1]; 1×10^−4 M", "value": 0.6510}, {"measurement": "Mean optical density (OD) at 490 nm, cell proliferation", "setting": "[1]; 1×10^−5 M", "value": 0.8184}, {"measurement": "Median optical density (OD) at 490 nm, cell proliferation", "setting": "[1]; 1×10^−5 M", "value": 0.8210}, {"measurement": "Mean optical density (OD) at 490 nm, cell proliferation", "setting": "[1]; 1×10^−6 M", "value": 0.7854}, {"measurement": "Median optical density (OD) at 490 nm, cell proliferation", "setting": "[1]; 1×10^−6 M", "value": 0.7900}, {"measurement": "Stimulation of collagen production (in words)", "setting": "[2]; [5]", "value": "more profound, particularly at lower, rather than higher, concentrations; also recorded: lower concentrations of gibberellic acid had the most profound effect"}, {"measurement": "Mean optical density (OD) at 450 nm, collagen production", "setting": "[2]; 1×10^−4 M", "value": 0.7780}, {"measurement": "Median optical density (OD) at 450 nm, collagen production", "setting": "[2]; 1×10^−4 M", "value": 0.7780}, {"measurement": "Mean optical density (OD) at 450 nm, collagen production", "setting": "[2]; 1×10^−5 M", "value": 0.8365}, {"measurement": "Median optical density (OD) at 450 nm, collagen production", "setting": "[2]; 1×10^−5 M", "value": 0.8365}, {"measurement": "Mean optical density (OD) at 450 nm, collagen production", "setting": "[2]; 1×10^−6 M", "value": 0.8630}, {"measurement": "Median optical density (OD) at 450 nm, collagen production", "setting": "[2]; 1×10^−6 M", "value": 0.8630}, {"measurement": "Stimulation of fibronectin production (in words)", "setting": "[3]; [5]", "value": "effective for stimulating fibronectin production in human fibroblasts; also recorded: Both low and high concentrations of gibberellic acid stimulated fibronectin production"}, {"measurement": "Mean optical density (OD) at 450 nm, fibronectin production", "setting": "[3]; 1×10^−4 M", "value": 0.2150}, {"measurement": "Median optical density (OD) at 450 nm, fibronectin production", "setting": "[3]; 1×10^−4 M", "value": 0.2150}, {"measurement": "Mean optical density (OD) at 450 nm, fibronectin production", "setting": "[3]; 1×10^−5 M", "value": 0.2090}, {"measurement": "Median optical density (OD) at 450 nm, fibronectin production", "setting": "[3]; 1×10^−5 M", "value": 0.2090}, {"measurement": "Mean optical density (OD) at 450 nm, fibronectin production", "setting": "[3]; 1×10^−6 M", "value": 0.2225}, {"measurement": "Median optical density (OD) at 450 nm, fibronectin production", "setting": "[3]; 1×10^−6 M", "value": 0.2225}, {"measurement": "Effect on wound closure / wound healing (in words)", "setting": "Swiss Albino mice", "value": "accelerated wound healing during the 24 to 48 hrs following treatment"}, {"measurement": "Skin irritation or redness", "setting": "[4]; 0.25% composition", "value": "no visible sign of any skin irritation or redness"}, {"measurement": "Time for cell renewal, treated skin (RENEWAL)", "setting": "[4]; 0.25% in hyaluronic acid (0.5% aqueous solution), upper inner arm, individual patients, listed as GA", "value": "21 Days and 14 Days (2×) and 12 Days (2×) and 19 Days and 17 Days"}]}
